Where “and” joins values, the source holds several entries; their conditions need not be identical. Identical values can stand only once. Counter-ions that a name gives are not always drawn. Like-named read-outs stand apart in the source and are kept apart here.
Tests used:
BCL-2 = molecular target: T1, BCL-2 (Homo sapiens, UniProt P10415); test: Protein-protein interaction assay BCL-2/Bad BH3 peptide (BCL-2 assay), TR-FRET; assay type: binding; conditions: His-BCL-2 / Bad BH3-derived peptide, median
T1 construct: BCL-2 (amino acids 1-211, C-terminal fused to a hexahistidine (6×His) tag); purchased BPS Bioscience (San Diego, Calif., USA); host or cells: E. coli
T1 sequence (P10415 1-211): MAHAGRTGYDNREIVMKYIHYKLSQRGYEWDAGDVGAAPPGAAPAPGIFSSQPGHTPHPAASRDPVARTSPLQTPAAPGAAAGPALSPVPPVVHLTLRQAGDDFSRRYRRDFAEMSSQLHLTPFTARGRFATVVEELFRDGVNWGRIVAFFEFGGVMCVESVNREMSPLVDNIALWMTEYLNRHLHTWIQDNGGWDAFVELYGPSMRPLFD
Experimental: Protein-Protein Interaction Assay: BCL-2/Bad BH3 Peptide (BCL-2 Assay)
The dose-dependent inhibition by the compounds described in this invention of the interaction between BCL-2 and the BH3 domain of Bad (both human) was determined using a steady state binding competition assay with time-resolved fluorescence energy transfer (TR-FRET) readout. For that purpose BCL-2 (amino acids 1-211, C-terminal fused to a hexahistidine (6×His) tag and a synthetic Bad BH3-derived peptide of sequence Biotin-PEG2-PEG2-NLWAAQRYGRELRR-Nle-SDEFVDSFKK-amide (SEQ ID NO: 2) served as protein receptor and tracer ligand respectively. The recombinant BCL-2 protein (expressed in E. coli) was purchased from BPS Bioscience (San Diego, Calif., USA). The Bad BH3-derived peptide can be obtained from e.g. Biosyntan (Berlin, Germany).
In the assay 11 different concentrations of each compound (0.1 nM, 0.33 nM, 1.1 nM, 3.8 nM. 13 nM, 44 nM, 0.15 μM, 0.51 μM, 1.7 μM, 5.9 μM and 20 μM) were typically measured as duplicates in the same microtiter plate. For that, 100-fold concentrated DMSO solutions were prepared by serial dilutions (1:3.4) of a 2 mM stock solution in a clear, 384-well microtiter plate (Greiner Bio-One, Frickenhausen, Germany). From there, 50 nl were transferred in a dark test plate (Greiner Bio-One. Frickenhausen, Germany). The assay was initiated by addition of 2 μl of a 2,5-fold concentrated His-BCL-2 solution (usually for a 1 nM end concentration in 5 μl reaction volume) in aqueous assay buffer [50 mM Tris/HCl pH 7, 100 mM sodium chloride (NaCl), 50 mM potassium fluoride (KF), 0.005% Tween-20, 2 mM DTT, 0.1% bovine gamma globulin (BGG)] to the compounds in the assay plate. This was followed by a 10-minute incubation step at 22° C. for pre-equilibration of the putative complex between His-BCL-2 and the compounds.
The mixture was incubated in the dark for one hour at 22° C. and then overnight at 4° C. The formation of BCL-2/Bad complexes was determined by measuring the resonance energy transfer of the anti-His-Eu-cryptate antibody to the streptavidin-XL665 present in the reaction. For that purpose, the fluorescence emission at 620 nm and 665 nm after excitation at 330-350 nm was measured in a TR-FRET measuring instrument, for instance a Rubystar or a Pherastar (both from BMG Lab Technologies. Offenburg, Germany) or a Viewlux (Perkin-Elmer). The ratio of the emission at 665 nm and at 622 nm was used as indicator of the amount of BCL-2/Bad complexes present.
The resulting data (ratio) were normalized, taking 0% inhibition as the mean value of control measurements (usually 32 data points) where all reagents were included. In this case 50 nl DMSO were used instead of compounds. A 100% inhibition corresponded to the mean value of control measurements (usually 32 data points) where all reagents except BCL-2 were included. IC50 values were determined by regression analysis based on a 4 parameter equation (minimum, maximum, IC50, Hill; Y=Max+(Min−Max)/(1+(X/IC50)^Hill) using the Screener Software (Genedata).

A2780 = test: Anti-proliferative effect (CellTiter-Glo, 72 h), A2780; assay type: cell-based; conditions: A2780 cells, median, read-out: IC50 antiproliferation assay A2780 [M] (median)
Outline: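 Viable cells quantified with CellTiter-Glo after 72 h at 37 °C; rim wells excluded; day 0 plate as baseline.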

IC50 (BCL-2) [µM]	IC50 (A2780)	IC50 (A2780; Homo sapiens, A2780, 72 h) [M]	SMILES
2.34	–	7.08e-06	CN1CCCn2c(C(=O)O)c(CCCOc3cccc4ccccc34)c3cccc(c32)-c2c(COc3ccc(N4CCN(S(C)(=O)=O)CC4)cc3)nn(C)c2C1 (single isomer, unassigned; enantiomer 1) [Example 1-46, (+)-7,9-dimethyl-11-({4-[4-(methylsulfonyl)piperazin-1-yl]phenoxy}methyl)-1-[3-(naphthalen-1-yloxy)propyl]-4,5,6,7,8,9-hexahydropyrazolo[3′,4′:7,8][1,5]diazecino[9,10,1-hi]indole-2-carboxylic Acid (Enantiomer 1)]
> 20	–	> 3.3e-05	Cc1nn(C)c2c1-c1cccc3c(CCCOc4cccc5ccccc45)c(C(=O)O)n(c13)CCCN(C)C2 (single isomer, unassigned; enantiomer 1) [Example 1-31, 7,9,11-trimethyl-1-[3-(naphthalen-1-yloxy)propyl]-4,5,6,7,8,9-hexahydropyrazolo[3′,4′:7,8][1,5]diazecino[9,10,1-hi]indole-2-carboxylic Acid-N-ethylethanamine Salt (Enantiomer 1)]
> 20	7.74e-06 M	–	Cn1nc(COc2ccc(N3CCN(S(=O)(=O)C4CC4)CC3)cc2)c2c1COCCCCn1c(C(=O)O)c(CCCOc3cccc4ccccc34)c3cccc-2c31 (single isomer, unassigned; enantiomer 2) [Example 1-13, 3-({4-[4-(cyclopropylsulfonyl)piperazin-1-yl]phenoxy}methyl)-1-methyl-7-[3-(naphthalen-1-yloxy)propyl]-1,10,11,12,13,15-hexahydropyrazolo[4′,3′:9,10][1,6]oxazacycloundecino[8,7,6-hi]indole-8-carboxylic Acid (Enantiomer 2)]
> 20	–	7.24e-06	CN1CCCn2c(C(=O)O)c(CCCOc3cccc4ccccc34)c3cccc(c32)-c2c(COc3ccc(N4CCN(S(=O)(=O)N(C)C)CC4)cc3)nn(C)c2C1 (single isomer, unassigned; enantiomer 1) [Example 1-15, (+)-11-({4-[4-(dimethylsulfamoyl)piperazin-1-yl]phenoxy}methyl)-7,9-dimethyl-1-[3-(naphthalen-1-yloxy)propyl]-4,5,6,7,8,9-hexahydropyrazolo[3′,4′:7,8][1,5]diazecino[9,10,1-hi]indole-2-carboxylic Acid (Enantiomer 1)]
> 20	–	2.48e-05	CN1CCCn2c(C(=O)O)c(CCCOc3cccc4ccccc34)c3cccc(c32)-c2c(CN3CCOCC3)nn(C)c2C1 (single isomer, unassigned; enantiomer 1) [Example 1-43, (+)-7,9-dimethyl-11-(morpholin-4-ylmethyl)-1-[3-(naphthalen-1-yloxy)propyl]-4,5,6,7,8,9-hexahydropyrazolo[3′,4′:7,8][1,5]diazecino[9,10,1-hi]indole-2-carboxylic Acid (Enantiomer 1)]

The next lines start with the molecule.

SMILES	IC50 (BCL-2) [µM]	IC50 (A2780)	IC50 (A2780; Homo sapiens, A2780, 72 h) [M]
Cc1nn(C)c2c1-c1cccc3c(CCCOc4cccc5cc(F)ccc45)c(C(=O)O)n(c13)CCCCOC2 (single isomer, unassigned; enantiomer 1) [Example 019, 7-{3-[(6-fluoronaphthalen-1-yl)oxy]propyl}-1,3-dimethyl-1,10,11,12,13,15-hexahydropyrazolo[4′,3′:9,10][1,6]oxazacycloundecino[8,7,6-hi]indole-8-carboxylic Acid-N-ethylethanamine Salt (Enantiomer 1)]	> 20	> 3.3e-05 M	–
Cc1ccc2c(CCCOc3cccc4ccccc34)c(C(=O)O)n3c2c1-c1c(nn(C)c1C)CN(C)CCC3 (single isomer, unassigned; enantiomer 1) [Example 073, 7,10,11,12-tetramethyl-1-[3-(naphthalen-1-yloxy)propyl]-4,5,6,7,8,10-hexahydropyrazolo[3′,4′:7,8][1,5]diazecino[9,10,1-hi]indole-2-carboxylic Acid (Enantiomer 1)]	> 20	–	1.4e-05
CCc1c2c(nn1C)COCCCCn1c(C(=O)O)c(CCCOc3cccc4ccccc34)c3ccc(C)c-2c31 (single isomer, unassigned; enantiomer 1) [Example 154, 3-Ethyl-2,4-dimethyl-7-[3-(1-naphthyloxy)propyl]-2,10,11,12,13,15-hexahydropyrazolo[4′,3′:9,10][1,6]oxazacycloundecino[8,7,6-hi]indole-8-carboxylic acid-N-ethylethanamine Salt (Enantiomer 1)]	> 20	–	1.72e-05
COCCn1nc2c(c1CN1CCOCC1)-c1cccc3c(CCCOc4cccc5ccccc45)c(C(=O)O)n(c13)CCCN(C)C2 (single isomer, unassigned; enantiomer 1) [Example 057, 10-(2-methoxyethyl)-7-methyl-11-(morpholin-4-ylmethyl)-1-[3-(naphthalen-1-yloxy)propyl]-4,5,6,7,8,10-hexahydropyrazolo[3′,4′:7,8][1,5]diazecino[9,10,1-hi]indole-2-carboxylic Acid (Enantiomer 1)]	> 20	–	3.01e-05
Cc1nn(C)c2c1-c1cccc3c(CCCOc4cccc5cc(Cl)ccc45)c(C(=O)O)n(c13)CCCCOC2 (single isomer, unassigned; enantiomer 1) [Example 041, 7-{3-[(6-chloronaphthalen-1-yl)oxy]propyl}-1,3-dimethyl-1,10,11,12,13,15-hexahydropyrazolo[4′,3′:9,10][1,6]oxazacycloundecino[8,7,6-hi]indole-8-carboxylic acid-N-ethylethanamine Salt (Enantiomer 1)]	> 20	–	1.81e-05
Cc1c2c(nn1C1CC1)COCCCCn1c(C(=O)O)c(CCCOc3cccc4ccccc34)c3cccc-2c31 (single isomer, unassigned; enantiomer 1) [Example 093, 2-cyclopropyl-3-methyl-7-[3-(naphthalen-1-yloxy)propyl]-2,10,11,12,13,15-hexahydropyrazolo[4′,3′:9,10][1,6]oxazacycloundecino[8,7,6-hi]indole-8-carboxylic acid-N-ethylethanamine Salt (Enantiomer 1)]	> 20	–	2.71e-05
Cc1ccc2c(CCCOc3cccc4ccccc34)c(C(=O)O)n3c2c1-c1c(nn(C)c1C)CN(C)CCC3 (single isomer, unassigned; enantiomer 2) [Example 074, 7,10,11,12-tetramethyl-1-[3-(naphthalen-1-yloxy)propyl]-4,5,6,7,8,10-hexahydropyrazolo[3′,4′:7,8][1,5]diazecino[9,10,1-hi]indole-2-carboxylic Acid (Enantiomer 2)]	> 20	1.3e-05 M	–
Cc1ccc2c(CCCOc3cccc4c3CCCC4)c(C(=O)O)n3c2c1-c1c(C)nn(C)c1COCCCC3 (racemic) [Example 039, (rac)-1,3,4-trimethyl-7-[3-(5,6,7,8-tetrahydronaphthalen-1-yloxy)propyl]-110,11,12,13,15-hexahydropyrazolo[4′3′:9,10][1,6]oxazacycloundecino[8,7,6-hi]indole-8-carboxylic Acid]	> 20	–	2.14e-05
Cc1nn(C)c2c1-c1cccc3c(CCCOc4ccc(F)c5ccccc45)c(C(=O)O)n(c13)CCCCOC2 (single isomer, unassigned; enantiomer 2) [Example 023, 7-{3-[(4-fluoronaphthalen-1-yl)oxy]propyl}-1,3-dimethyl-1,10,11,12,13,15-hexahydropyrazolo[4′3′:9,10][1,6]oxazacycloundecino[8,7,6-hi]indole-8-carboxylic acid-N-ethylethanamine Salt (Enantiomer 2)]	> 20	2e-05 M and > 3.3e-05 M	–

Reference: patent US10981932B2, “Macrocyclic indole derivatives” (Bayer Aktiengesellschaft, priority 2016, dated 2021)
